≈ marks a conversion by molar mass, not a printed value.

ED50 for FVII gene silencing and EC50 data for three compounds are collected here from patent US20240300914A1, “KC2-Type Lipids” (NanoVation Therapeutics Inc., priority 2021, published 2024).

One experiment deals with FVII. The note with it: mice, siRNA formulations; Jayaraman et al. 2012; cited from earlier work.
Experiment [1] deals with 22Rv1 cells modified to stably express luciferase. Briefly: Luciferase knockdown by siRNA-LNPs in 22Rv1 cells. It counts as cell-based. The conditions noted are these: Homo sapiens; siRNA-LNP 50/10/38.5/1.5, N/P 3; 22Rv1 luciferase cells; read-out: half maximal effective siRNA concentration (EC50). As to the method:
The LNPs contain 50/10/38.5/1.5 mol % of ionizable lipid/DSPC/chol/PEG-DMG (N/P=3) and the siRNA encodes luciferase.
An siRNA targeted against firefly luciferase purchased from Integrated DNA Technologies (IDT, Coralville, IA) was used to assess ability of LNP to knockdown firefly luciferase in a cell line.
LNP formulations containing the ionizable lipids, nor-KC2 or MC3, DSPC, cholesterol, and PEG-DMG were prepared containing siRNA encoding luciferase. The lipid nanoparticles comprise 50/10/38.5/1.5 mol % of ionizable lipid/DSPC/chol/PEG-DMG and the nitrogen-to-phosphorus ratio (N/P) was 3.

`CCCCC/C=C\C/C=C\CCCCCCCCC1(CCCCCCCC/C=C\C/C=C\CCCCC)OCC(CCN(C)C)O1` (stereo not drawn) [KC2]: in the experiment with FVII, the ED50 for FVII gene silencing is 0.1 mg/kg.
With `CCCCC/C=C\C/C=C\CCCCCCCCC(CCCCCCCC/C=C\C/C=C\CCCCC)OC(=O)CCCN(C)C` [MC3, dilinoleyl-methyl-4-dimethylaminobutyrate], the EC50 in experiment [1] came to 0.131 µg/mL (≈ 0.204 µM).
With `CCCCC/C=C\C/C=C\CCCCCCCC1(CCCCCCC/C=C\C/C=C\CCCCC)OCC(CCN(C)C)O1` (stereo not drawn) [nor-KC2, 2-(2,2-Di((8Z,11Z)-heptadeca-8,11-dien-1-yl)-1,3-dioxolan-4-yl)-N,N-dimethylethan-1-amine], in experiment [1], the EC50 came to 0.137 µg/mL (≈ 0.224 µM).
